Test: xn = mol fraction of the nth substance listed
Conditions: for mass density / viscosity: 100 kPa, Liquid; for mass density: Vibrating tube method; for surface tension liquid-gas: Drop volume

CC12CC3CC(C)(C1)CC(C)(C3)C2 [1,3,5-trimethyladamantane] + CCCCCCCO
Conditions	mass density [kg/m3]	surface tension liquid-gas [mN/m]	viscosity [mPa·s]
293.15 K, x2 = 0	887.48	–	2.601
293.15 K, x2 = 0.1001	882.47	–	2.626
293.15 K, x2 = 0.2001	877.46	–	2.775
293.15 K, x2 = 0.3002	872.11	–	2.97
293.15 K, x2 = 0.4004	866.49	–	3.242
293.15 K, x2 = 0.5001	860.53	–	3.5
293.15 K, x2 = 0.6002	854.11	–	4.051
293.15 K, x2 = 0.7001	847.23	–	4.645
293.15 K, x2 = 0.7999	839.77	–	5.371
293.15 K, x2 = 0.9002	831.44	–	6.221
298.15 K, x2 = 0	883.99	26.17	2.338
298.15 K, x2 = 0.1001	878.9	26.19	2.349
298.15 K, x2 = 0.2001	873.88	26.22	2.469
298.15 K, x2 = 0.3002	868.52	26.26	2.632
298.15 K, x2 = 0.4004	862.91	26.32	2.854
298.15 K, x2 = 0.5001	856.94	26.34	3.131
298.15 K, x2 = 0.6002	850.53	26.36	3.51
298.15 K, x2 = 0.7001	843.66	26.32	3.99
298.15 K, x2 = 0.7999	836.22	26.3	4.567
298.15 K, x2 = 0.9002	827.93	26.29	5.229
303.15 K, x2 = 0	880.47	–	2.118
303.15 K, x2 = 0.1001	875.31	–	2.114
303.15 K, x2 = 0.2001	870.27	–	2.212
303.15 K, x2 = 0.3002	864.91	–	2.35
303.15 K, x2 = 0.4004	859.29	–	2.533
303.15 K, x2 = 0.5001	853.32	–	2.758
303.15 K, x2 = 0.6002	846.91	–	3.066
303.15 K, x2 = 0.7001	840.05	–	3.457
303.15 K, x2 = 0.7999	832.63	–	3.924
303.15 K, x2 = 0.9002	824.38	–	4.464
308.15 K, x2 = 0	876.94	–	1.93
308.15 K, x2 = 0.1001	871.72	–	1.911
308.15 K, x2 = 0.2001	866.65	–	1.992
308.15 K, x2 = 0.3002	861.27	–	2.108
308.15 K, x2 = 0.4004	855.65	–	2.261
308.15 K, x2 = 0.5001	849.68	–	2.444
308.15 K, x2 = 0.6002	843.28	–	2.699
308.15 K, x2 = 0.7001	836.41	–	3.015
308.15 K, x2 = 0.7999	829.02	–	3.396
308.15 K, x2 = 0.9002	820.8	–	3.841
313.15 K, x2 = 0	873.4	–	1.765
313.15 K, x2 = 0.1001	868.1	–	1.737
313.15 K, x2 = 0.2001	863	–	1.802
313.15 K, x2 = 0.3002	857.62	–	1.899
313.15 K, x2 = 0.4004	851.98	–	2.027
313.15 K, x2 = 0.5001	846.01	–	2.178
313.15 K, x2 = 0.6002	839.62	–	2.387
313.15 K, x2 = 0.7001	832.76	–	2.648
313.15 K, x2 = 0.7999	825.37	–	2.957
313.15 K, x2 = 0.9002	817.19	–	3.327
318.15 K, x2 = 0	869.86	–	1.621
318.15 K, x2 = 0.1001	864.47	–	1.585
318.15 K, x2 = 0.2001	859.34	–	1.636
318.15 K, x2 = 0.3002	853.95	–	1.719
318.15 K, x2 = 0.4004	848.3	–	1.826
318.15 K, x2 = 0.5001	842.32	–	1.952
318.15 K, x2 = 0.6002	835.93	–	2.124
318.15 K, x2 = 0.7001	829.07	–	2.338
318.15 K, x2 = 0.7999	821.7	–	2.593
318.15 K, x2 = 0.9002	813.54	–	2.899
323.15 K, x2 = 0	866.31	–	1.494
323.15 K, x2 = 0.1001	860.82	–	1.452
323.15 K, x2 = 0.2001	855.66	–	1.494
323.15 K, x2 = 0.3002	850.25	–	1.561
323.15 K, x2 = 0.4004	844.59	–	1.652
323.15 K, x2 = 0.5001	838.61	–	1.756
323.15 K, x2 = 0.6002	832.21	–	1.899
323.15 K, x2 = 0.7001	825.35	–	2.049
323.15 K, x2 = 0.7999	817.99	–	2.287
323.15 K, x2 = 0.9002	809.87	–	2.541
328.15 K, x2 = 0	862.76	–	1.384
328.15 K, x2 = 0.1001	857.16	–	1.335
328.15 K, x2 = 0.2001	851.96	–	1.368
328.15 K, x2 = 0.3002	846.53	–	1.424
328.15 K, x2 = 0.4004	840.86	–	1.5
328.15 K, x2 = 0.5001	834.86	–	1.587
328.15 K, x2 = 0.6002	828.46	–	1.707
328.15 K, x2 = 0.7001	821.6	–	1.855
328.15 K, x2 = 0.7999	814.26	–	2.029
328.15 K, x2 = 0.9002	806.15	–	2.239
333.15 K, x2 = 0	859.2	–	1.284
333.15 K, x2 = 0.1001	853.48	–	1.232
333.15 K, x2 = 0.2001	848.24	–	1.257
333.15 K, x2 = 0.3002	842.78	–	1.303
333.15 K, x2 = 0.4004	837.09	–	1.367
333.15 K, x2 = 0.5001	831.09	–	1.44
333.15 K, x2 = 0.6002	824.68	–	1.54
333.15 K, x2 = 0.7001	817.82	–	1.663
333.15 K, x2 = 0.7999	810.48	–	1.808
333.15 K, x2 = 0.9002	802.4	–	1.984

CC12CC3CC(C)(C1)CC(C)(C3)C2 [1,3,5-trimethyladamantane] + OCC1CCCCC1
Conditions	mass density [kg/m3]	surface tension liquid-gas [mN/m]	viscosity [mPa·s]
293.15 K, x2 = 0	887.48	–	2.601
293.15 K, x2 = 0.1	889.7	–	2.872
293.15 K, x2 = 0.2001	892.4	–	3.328
293.15 K, x2 = 0.2997	895.41	–	3.955
293.15 K, x2 = 0.4	898.82	–	4.859
293.15 K, x2 = 0.4994	902.62	–	6.211
293.15 K, x2 = 0.5991	906.88	–	8.288
293.15 K, x2 = 0.7	911.64	–	11.51
293.15 K, x2 = 0.801	917.1	–	16.66
293.15 K, x2 = 0.8927	922.52	–	24.62
298.15 K, x2 = 0	883.99	26.17	2.338
298.15 K, x2 = 0.1	886.13	26.18	2.55
298.15 K, x2 = 0.2001	888.82	26.4	2.939
298.15 K, x2 = 0.2997	891.83	26.77	3.455
298.15 K, x2 = 0.4	895.23	27.22	4.184
298.15 K, x2 = 0.4994	899.02	27.65	5.256
298.15 K, x2 = 0.5991	903.29	28.16	6.866
298.15 K, x2 = 0.7	908.13	28.88	9.343
298.15 K, x2 = 0.801	913.53	29.74	13.22
298.15 K, x2 = 0.8927	918.95	30.63	19.19
303.15 K, x2 = 0	880.47	–	2.118
303.15 K, x2 = 0.1	882.54	–	2.297
303.15 K, x2 = 0.2001	885.21	–	2.615
303.15 K, x2 = 0.2997	888.21	–	3.041
303.15 K, x2 = 0.4	891.61	–	3.639
303.15 K, x2 = 0.4994	895.4	–	4.492
303.15 K, x2 = 0.5991	899.66	–	5.76
303.15 K, x2 = 0.7	904.52	–	7.681
303.15 K, x2 = 0.801	909.91	–	10.65
303.15 K, x2 = 0.8927	915.34	–	15.28
308.15 K, x2 = 0	876.94	–	1.93
308.15 K, x2 = 0.1	878.93	–	2.072
308.15 K, x2 = 0.2001	881.59	–	2.336
308.15 K, x2 = 0.2997	884.59	–	2.694
308.15 K, x2 = 0.4	887.97	–	3.187
308.15 K, x2 = 0.4994	891.76	–	3.876
308.15 K, x2 = 0.5991	896.02	–	4.884
308.15 K, x2 = 0.7	900.87	–	6.386
308.15 K, x2 = 0.801	906.27	–	8.659
308.15 K, x2 = 0.8927	911.73	–	12.26
313.15 K, x2 = 0	873.4	–	1.765
313.15 K, x2 = 0.1	875.32	–	1.878
313.15 K, x2 = 0.2001	877.95	–	2.1
313.15 K, x2 = 0.2997	880.94	–	2.402
313.15 K, x2 = 0.4	884.32	–	2.811
313.15 K, x2 = 0.4994	888.09	–	3.371
313.15 K, x2 = 0.5991	892.35	–	4.181
313.15 K, x2 = 0.7	897.2	–	5.366
313.15 K, x2 = 0.801	902.61	–	7.126
313.15 K, x2 = 0.8927	908.08	–	9.952
318.15 K, x2 = 0	869.86	–	1.621
318.15 K, x2 = 0.1	871.69	–	1.71
318.15 K, x2 = 0.2001	874.3	–	1.898
318.15 K, x2 = 0.2997	877.27	–	2.151
318.15 K, x2 = 0.4	880.63	–	2.494
318.15 K, x2 = 0.4994	884.4	–	2.954
318.15 K, x2 = 0.5991	888.66	–	3.609
318.15 K, x2 = 0.7	893.49	–	4.552
318.15 K, x2 = 0.801	898.9	–	5.932
318.15 K, x2 = 0.8927	904.4	–	8.189
323.15 K, x2 = 0	866.31	–	1.494
323.15 K, x2 = 0.1	868.04	–	1.564
323.15 K, x2 = 0.2001	870.63	–	1.723
323.15 K, x2 = 0.2997	873.58	–	1.936
323.15 K, x2 = 0.4	876.93	–	2.224
323.15 K, x2 = 0.4994	880.69	–	2.604
323.15 K, x2 = 0.5991	884.94	–	3.14
323.15 K, x2 = 0.7	889.76	–	3.899
323.15 K, x2 = 0.801	895.17	–	4.99
323.15 K, x2 = 0.8927	900.68	–	6.785
328.15 K, x2 = 0	862.76	–	1.384
328.15 K, x2 = 0.1	864.39	–	1.435
328.15 K, x2 = 0.2001	866.94	–	1.569
328.15 K, x2 = 0.2997	869.86	–	1.752
328.15 K, x2 = 0.4	873.2	–	1.994
328.15 K, x2 = 0.4994	876.94	–	2.311
328.15 K, x2 = 0.5991	881.18	–	2.751
328.15 K, x2 = 0.7	885.99	–	3.367
328.15 K, x2 = 0.801	891.4	–	4.238
328.15 K, x2 = 0.8927	896.92	–	5.705
333.15 K, x2 = 0	859.2	–	1.284
333.15 K, x2 = 0.1	860.72	–	1.322
333.15 K, x2 = 0.2001	863.23	–	1.436
333.15 K, x2 = 0.2997	866.13	–	1.59
333.15 K, x2 = 0.4	869.45	–	1.797
333.15 K, x2 = 0.4994	873.17	–	2.061
333.15 K, x2 = 0.5991	877.4	–	2.426
333.15 K, x2 = 0.7	882.2	–	2.93
333.15 K, x2 = 0.801	887.6	–	3.632
333.15 K, x2 = 0.8927	893.12	–	4.772

— the NIST ThermoML archive (doi:10.1021/je500381c)
